Some test systems named below: SK-OV-3; SNB-75; SK-MEL-5; HCT-15; EKVX; CAKI-1; OVCAR-4; 786-0; NCI-H23; IGROV-1; HT-29; TK-10; HOP-92; KM12; HCC 2998; HOP-62; ACHN.
Common to all, as to assay: NCI tumour cell line growth inhibition, 48 h

SMILES strings stand for the structures.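 These data come from cells grown in 96-well plates and exposed to compound for 48 hours at five concentrations. Abbreviation: GI50, concentration required for 50% inhibition of growth.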 Active and inactive are the calls of the source. Cut-off read from the data, not from the text of the source: active = GI50 up to about 1.1 µM and inactive = higher.

Regarding `CC1(C)CCC(=O)c2c(O)ccc(O)c21`, the GI50 in the assay on SK-OV-3 was > 100 µM (inactive); in the assay on SNB-75, 23.1 µM (inactive); in the assay with SK-MEL-5, > 100 µM (inactive); in the assay with HCT-15 it was 83.9 µM; in the assay with EKVX, > 100 µM (inactive); with CAKI-1 it was 71.8 µM (inactive). Further, the GI50 in the assay with OVCAR-4 was > 100 µM (inactive); in the assay on 786-0, > 100 µM (inactive); in the assay on NCI-H23, > 100 µM (inactive); with IGROV-1 it was > 100 µM (inactive); in the assay on HT-29 it was 30.1 µM (inactive); in the assay on TK-10 it was > 100 µM (inactive). Further, the GI50 in the assay with HOP-92 was 15.4 µM (inactive); in the assay with KM12, 83.9 µM (inactive); in the assay on HCC 2998, > 100 µM (inactive).
As to `O=S(=O)(N/N=C\c1c2ccccc2[n+]([O-])c2ccccc12)c1ccc(Cl)cc1`, the GI50 with SK-OV-3 is > 100 µM (inactive); with SNB-75 it was 26.1 µM (inactive); in the assay on SK-MEL-5, > 100 µM (inactive); with HCT-15, more than 100 µM; in the assay on HOP-62, 80 µM (inactive); in the assay with EKVX, > 100 µM (inactive). For the same compound, the GI50 is 35.6 µM (inactive) in the assay on ACHN; > 100 µM (inactive) with CAKI-1; 33.3 µM (inactive) in the assay on OVCAR-4; 43.5 µM (inactive) with 786-0; 85.5 µM (inactive) in the assay with NCI-H23; > 100 µM (inactive) with IGROV-1. Further, the GI50 in the assay with HT-29, with TK-10, in the assay with HOP-92, in the assay on KM12 and in the assay on HCC 2998 was > 100 µM (inactive) each time.
With `O=C(O)C12C3C4C1C1C2C3C41I` (stereo not given), the GI50 in the assay with SK-OV-3 was > 100 µM (inactive); in the assay on SNB-75 it was 70.6 µM (inactive); with SK-MEL-5, > 100 µM (inactive); in the assay on HCT-15, more than 100 µM; in the assay with HOP-62 it was > 100 µM (inactive); in the assay with EKVX it was > 100 µM (inactive). Besides, the GI50 with ACHN, in the assay with CAKI-1, with OVCAR-4, with 786-0, in the assay on NCI-H23 and with IGROV-1 was > 100 µM (inactive) throughout. Further, the GI50 in the assay on HT-29, in the assay on TK-10, with HOP-92, in the assay on KM12 and in the assay on HCC 2998 was > 100 µM (inactive) each time.
For `COC(=O)CC[C@@H](NC(=O)C(C)NC(=O)COC1C(O)C(COC(=O)CCCCCCCCCCNC(=O)c2ccc([N+](=O)[O-])c3[nH]c4cc(Br)ccc4c(=O)c23)OC(OCc2ccccc2)C1NC(C)=O)C(N)=O` (stereo not given in full), the GI50 was > 100 µM (inactive) in the assay on SK-OV-3; > 100 µM (inactive) in the assay with SNB-75; 68.7 µM (inactive) with SK-MEL-5; more than 100 µM with HCT-15; 83.8 µM (inactive) in the assay with HOP-62; 17.3 µM (inactive) with EKVX. The GI50 was > 100 µM (inactive) with ACHN; > 100 µM (inactive) in the assay with CAKI-1; > 100 µM (inactive) in the assay on OVCAR-4; > 100 µM (inactive) in the assay on 786-0; > 100 µM (inactive) in the assay with NCI-H23; 19.5 µM (inactive) in the assay with IGROV-1. Further, the GI50 in the assay with HT-29 is > 100 µM (inactive); with TK-10, > 100 µM (inactive); with HOP-92, 37.1 µM (inactive); with KM12, > 100 µM (inactive); in the assay with HCC 2998, 22.5 µM (inactive).
For the compound `O=C1C(Cl)=C(Cl)C(=O)N1c1ccc(Cl)c(Cl)c1Cl`, the GI50 with SK-OV-3 was > 100 µM (inactive); in the assay with SNB-75, > 100 µM (inactive); with SK-MEL-5 it was > 100 µM (inactive); with HCT-15, 31.1 µM; in the assay with HOP-62 it was > 100 µM (inactive); in the assay with EKVX it was 61.5 µM (inactive). Besides, the GI50 is 75 µM (inactive) in the assay with ACHN; 25.5 µM (inactive) in the assay on CAKI-1; 28.4 µM (inactive) in the assay with OVCAR-4; 44.5 µM (inactive) in the assay on 786-0; 61.8 µM (inactive) in the assay on NCI-H23; > 100 µM (inactive) with IGROV-1. The GI50 in the assay with HT-29 was 51.4 µM (inactive); with TK-10, > 100 µM (inactive); with HOP-92, 24.7 µM (inactive); with KM12, > 100 µM (inactive); in the assay with HCC 2998 it was > 100 µM (inactive).
As to `Cc1ccc2nc3c(C(=O)NCCN(C)C)cccc3nc2c1`, the GI50 with SK-OV-3 is 14.8 µM (inactive); with SNB-75, 5.48 µM (inactive); in the assay with SK-MEL-5, 4.6 µM (inactive); with HCT-15, 2.9 µM; in the assay with HOP-62, 3.85 µM (inactive); with EKVX, 5.65 µM (inactive). For the same compound, the GI50 is 1.91 µM (inactive) with ACHN; 4.69 µM (inactive) in the assay with OVCAR-4; 11.5 µM (inactive) in the assay on 786-0; 4.26 µM (inactive) in the assay with NCI-H23; 7.03 µM (inactive) in the assay with IGROV-1; 2.32 µM (inactive) in the assay on HT-29. Further, the GI50 with TK-10 is 3.73 µM (inactive); in the assay with HOP-92, 2.38 µM (inactive); in the assay on KM12, 3.94 µM (inactive); in the assay on HCC 2998 it was 6.05 µM (inactive).
Take `Cc1cc(=O)oc2c1cc(OCC(=O)OCCN1CCCCC1)c1occ(C)c12`: the GI50 was > 100 µM (inactive) in the assay with SNB-75; > 100 µM (inactive) with SK-MEL-5; more than 100 µM in the assay on HCT-15; > 100 µM (inactive) with EKVX; > 100 µM (inactive) in the assay on ACHN; > 100 µM (inactive) in the assay with CAKI-1. Besides, the GI50 with OVCAR-4, with 786-0, with NCI-H23, in the assay on HT-29, with TK-10 and in the assay on HOP-92 was > 100 µM (inactive) in each case. Besides, the GI50 in the assay with KM12 and in the assay on HCC 2998 was > 100 µM (inactive) in each case.
`S=c1c2ccccc2c(=S)n2n1CC=CC2`: the GI50 was > 100 µM (inactive) in the assay on SK-OV-3; 68.1 µM (inactive) in the assay on SNB-75; > 100 µM (inactive) in the assay with SK-MEL-5; more than 100 µM in the assay on HCT-15; > 100 µM (inactive) in the assay on EKVX; > 100 µM (inactive) with ACHN. Besides, the GI50 in the assay with CAKI-1, in the assay with OVCAR-4, in the assay on 786-0, in the assay on NCI-H23, with IGROV-1 and in the assay with HT-29 was > 100 µM (inactive) in each case. Besides, the GI50 in the assay on TK-10, with HOP-92, with KM12 and in the assay with HCC 2998 was > 100 µM (inactive) in each case.
Consider `N/N=C(\c1nc2ccc(Cl)cc2nc1O)C(O)c1ccc(Cl)c(Cl)c1` (stereo not given), for which the GI50 with SK-OV-3 was > 100 µM (inactive); in the assay on SNB-75 it was 31 µM (inactive); in the assay with SK-MEL-5 it was > 100 µM (inactive); in the assay on HCT-15, more than 100 µM; with HOP-62 it was > 100 µM (inactive); in the assay on EKVX, > 100 µM (inactive). Further, the GI50 in the assay with ACHN was > 100 µM (inactive); with OVCAR-4, 29.1 µM (inactive); in the assay with 786-0, 80.7 µM (inactive); in the assay on NCI-H23 it was > 100 µM (inactive); in the assay on IGROV-1, > 100 µM (inactive); in the assay on HT-29 it was > 100 µM (inactive). Besides, the GI50 in the assay with TK-10 was > 100 µM (inactive); in the assay on HOP-92 it was > 100 µM (inactive); with KM12, 70.5 µM (inactive); in the assay on HCC 2998, > 100 µM (inactive).

Values taken from ChEMBL document CHEMBL1201862, “PubChem BioAssay data set” (2004).
